Where a name gives a salt, the structure may show the parent alone.
How the values were obtained:
rPfGSK-3 = rPfGSK-3 (Plasmodium falciparum, UniProt O77344); test: KinaseGlo Plus assay for inhibition of PfGSK-3; assay type: biochemical; settings: 10 µM; remaining activity, calculated on DMSO controls; Table 3; read-out: rPfGSK-3 Activity at 10 µM [%]
[1] = test system: erythrocytic forms of P. falciparum (strain 3D7); test: Viability screening of antiplasmodial activity (SYBR-gold DNA quantification, 96 h); assay type: cell-based, Plasmodium falciparum; settings: for activity at 0.3 µM / activity at 3 µM / IC50: Plasmodium falciparum; for activity at 0.3 µM / activity at 3 µM: 96 h, strain 3D7, calculated on DMSO controls; for activity at 0.3 µM: read-out: Parasitemia (3D7) at 0.3 µM [%]; for activity at 3 µM: read-out: Parasitemia (3D7) at 3 µM [%]; for SI (Selectivity index for 3D7 erythrocytic forms versus HEK293 cells): 3D7 versus HEK293 cells; for IC50: 3D7, strain 3D7, erythrocytic forms; for IC50 (3D7) [nM]: strain 3D7, erythrocytic forms
in vitro = assay type: cell-based, human; settings: human, HEK293T Viability at 30 µM [%]
Method: Cytotoxic effects of test compounds on eukaryotic cells were investigated using a HEK293T cell viability assay. First, the cell density of a HEK293T culture was determined. […] The supernatant was then aspirated and fresh culture medium was added to 200 μL into which the test compounds were previously added. All substances were previously dissolved in DMSO. […] The viability of the cells was then examined by adding PrestoBlue® Cell Viability Agent (Invitrogen, Carlsbad, CA, USA). The supernatant was removed, 10% PrestoBlue® was added in preheated PBS and the culture was incubated for 30 min at 37 °C. In cells with an active metabolism, the PrestoBlue dye is reduced, causing it to fluorescence. The fluorescence (λex = 560 nm, λem = 590 nm) was measured in an EnVision Multilable Plate Reader (Perkin Elmer, Waltham, MA, USA; integration time 0.1 sec/well).

Chain of rPfGSK-3 (O77344 entry or part of it): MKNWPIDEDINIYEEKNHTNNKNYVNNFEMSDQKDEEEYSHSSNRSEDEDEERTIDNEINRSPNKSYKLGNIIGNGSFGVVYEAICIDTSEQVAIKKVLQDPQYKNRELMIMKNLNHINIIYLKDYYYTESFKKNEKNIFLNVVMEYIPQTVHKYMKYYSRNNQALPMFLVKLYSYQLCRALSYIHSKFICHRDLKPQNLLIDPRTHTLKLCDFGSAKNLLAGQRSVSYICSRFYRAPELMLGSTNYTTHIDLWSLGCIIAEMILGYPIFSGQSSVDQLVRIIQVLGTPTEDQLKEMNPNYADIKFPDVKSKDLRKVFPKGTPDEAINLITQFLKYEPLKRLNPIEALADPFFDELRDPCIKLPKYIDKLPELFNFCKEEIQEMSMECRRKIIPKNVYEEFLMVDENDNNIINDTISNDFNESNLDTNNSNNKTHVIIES

| SMILES | remaining activity at 10 µM (rPfGSK-3) | activity at 0.3 µM [1] | activity at 3 µM ([1]; 3 µM) | viability at 48 h, 30 µM (in vitro) | SI (Selectivity index for 3D7 erythrocytic forms versus HEK293 cells) [1] | IC50 [1] | IC50 (3D7) [nM] [1] | antiplasmodial activity at the concentration investigated (in words) ([1]; 3 µM) |
| --- | --- | --- | --- | --- | --- | --- | --- | --- |
| CN(CCNC(=O)OC(C)(C)C)c1ccc(-c2c(C#N)c(N)nc3sc(C(=O)Nc4ccc(F)cc4)c(N)c23)c(Cl)c1 [Compound 9ac, tert-Butyl {2-[(3-chloro-4-{3,6-diamino-5-cyano-2-[(4-fluorophenyl)carbamoyl]thieno[2,3-b]pyridin-4-yl}phenyl)(methyl)amino]ethyl}carbamate] | 85.7 ± 8.2% | 30.1 ± 14.2% | 7.5 ± 5.9% | 55.8 ± 25.1% | – | – | – | – |
| Cc1nc2sc(C(=O)Nc3ccc(Cl)cc3)c(N)c2c(-c2ccccc2)c1C(=O)OC(C)(C)C [Compound 17g, tert-Butyl 3-amino-2-[(4-chlorophenyl)carbamoyl]-6-methyl-4-phenylthieno[2,3-b]pyridine-5-carboxylate] | 101 ± 5.5% | 11.7 ± 10.1% | 9.8 ± 15.1% | 56.9 ± 31.3% | >100 | 25.3 nM | two-digit nanomolar range | – |
| Cc1cccc(-c2c(C#N)c(N)nc3sc(C(=O)Nc4ccccc4Cl)c(N)c23)c1 [Compound 9f, 3,6-Diamino-N-(2-chlorophenyl)-5-cyano-4-(3-methylphenyl)thieno[2,3-b]pyridine-2-carboxamide] | 90.9 ± 14.2% | 80.2 ± 20.3% | 51.6 ± 15.7% | 93.6 ± 29.9% | – | – | – | – |
| CN(C)CCN(C)c1ccc(-c2c(C#N)c(N)nc3sc(C(=O)Nc4cccc(Cl)c4)c(N)c23)c(Cl)c1 [Compound 9af, 3,6-Diamino-4-(2-chloro-4-{[2-(dimethylamino)ethyl](methyl)amino}phenyl)-N-(3-chlorophenyl)-5-cyanothieno[2,3-b]pyridine-2-carboxamide] | 107 ± 11.2% | 5.8 ± 4.7% | 4.5 ± 7.4% | -7.4 ± 6.4% | – | – | – | – |
| N#Cc1c(N)nc2sc(C(=O)Nc3ccc(F)cc3)c(N)c2c1-c1ccc(N2CCCC2)cc1Cl [Compound 9aa, 3,6-Diamino-4-[2-chloro-4-(pyrrolidin-1-yl)phenyl]-5-cyano-N-(4-fluorophenyl)thieno[2,3-b]pyridine-2-carboxamide] | 101 ± 3.7% | 61.8 ± 27.7% | 5.3 ± 2.6% | 74 ± 8.6% | – | – | – | – |
| Cc1cccc(-c2c(C#N)c(N)nc3sc(C(=O)Nc4ccc(F)cc4)c(N)c23)c1 [Compound 9g, 3,6-Diamino-5-cyano-N-(4-fluorophenyl)-4-(3-methylphenyl)thieno[2,3-b]pyridine-2-carboxamide] | 74.8 ± 21.7% | 63.8 ± 16.5% | 3.1 ± 2.7% | 67.8 ± 8.1% | – | – | – | – |
| Cc1cccc(-c2c(C#N)c(N)nc3sc(C(=O)Nc4ccc(Cl)cc4)c(N)c23)c1 [Compound 9e, 3,6-Diamino-N-(4-chlorophenyl)-5-cyano-4-(3-methylphenyl)thieno[2,3-b]pyridine-2-carboxamide] | 106 ± 6.5% | 9.7 ± 6.8% | 5.6 ± 5.5% | 83.3 ± 20.6% | >100 | 273 nM | – | – |
| N#Cc1c(N)nc2sc(C(=O)Nc3ccc(F)cc3)c(N)c2c1-c1ccc(N2CCOCC2)cc1Cl [Compound 9x, 3,6-Diamino-4-(2-chloro-4-morpholinophenyl)-5-cyano-N-(4-fluorophenyl)thieno[2,3-b]pyridine-2-carboxamide] | 90.2 ± 8.9% | 59 ± 43.6% | 8.7 ± 6.6% | 86.1 ± 16% | – | – | – | – |
| CN(CCNC(=O)OC(C)(C)C)c1ccc(-c2c(C#N)c(N)nc3sc(C(=O)Nc4ccc(Cl)cc4)c(N)c23)c(Cl)c1 [Compound 9y, tert-Butyl {2-[(3-chloro-4-{3,6-diamino-2-[(4-chlorophenyl)carbamoyl]-5-cyanothieno[2,3-b]pyridin-4-yl}phenyl)(methyl)amino]ethyl}carbamate] | 110 ± 7.7% | 36.6 ± 27.4% | 5.5 ± 4.6% | 81.7 ± 19.6% | >40 | 699 nM | – | – |
| N#Cc1c(N)nc2sc(C(=O)Nc3ccccc3Cl)c(N)c2c1-c1ccc(N2CCOCC2)cc1Cl [Compound 9u, 3,6-Diamino-4-(2-chloro-4-morpholinophenyl)-N-(2-chlorophenyl)-5-cyanothieno[2,3-b]pyridine-2-carboxamide] | 110 ± 6.2% | 74.5 ± 21.2% | 53.1 ± 29.6% | 87 ± 26.7% | – | – | – | – |
| N#Cc1c(N)nc2sc(C(=O)Nc3ccc(Cl)cc3)c(N)c2c1-c1ccc(N2CCCC2)cc1Cl [Compound 9z, 3,6-Diamino-4-[2-chloro-4-(pyrrolidin-1-yl)phenyl]-N-(4-chlorophenyl)-5-cyanothieno[2,3-b]pyridine-2-carboxamide] | 109 ± 4.9% | 73.1 ± 22.1% | 6.4 ± 5.8% | 91.9 ± 13.6% | – | – | – | – |
| CN(CCNC(=O)OC(C)(C)C)c1ccc(-c2c(C#N)c(N)nc3sc(C(=O)Nc4ccccc4Cl)c(N)c23)c(Cl)c1 [Compound 9ad, tert-Butyl {2-[(3-chloro-4-{3,6-diamino-2-[(2-chlorophenyl)carbamoyl]-5-cyanothieno[2,3-b]pyridin-4-yl}phenyl)(methyl)amino]ethyl}carbamate] | 95 ± 10.7% | 57.7 ± 24.1% | 13.3 ± 9.9% | 76.3 ± 24.1% | – | – | – | – |
| CN(CCN)c1ccc(-c2c(C#N)c(N)nc3sc(C(=O)Nc4cccc(Cl)c4)c(N)c23)c(Cl)c1 [Compound 9ae, 3,6-Diamino-4-{4-[(2-aminoethyl)(methyl)amino]-2-chlorophenyl}-N-(3-chlorophenyl)-5-cyanothieno-[2,3-b]pyridine-2-carboxamide hydrochloride] | 101 ± 20.2% | 1.7 ± 4.2% | 2.7 ± 7.8% | -8.5 ± 7.4% | – | – | – | – |
| N#Cc1c(N)nc2sc(C(=O)Nc3ccc(F)cc3)c(N)c2c1-c1cccc(Cl)c1 [Compound 9d, 3,6-Diamino-4-(3-chlorophenyl)-5-cyano-N-(4-fluorophenyl)thieno[2,3-b]pyridine-2-carboxamide] | 69.7 ± 16.6% | 88.5 ± 17.6% | 3.5 ± 3.5% | 83 ± 21.6% | – | – | – | – |
| N#Cc1c(N)nc2sc(C(=O)Nc3ccccc3Cl)c(N)c2c1-c1cccc(Cl)c1 [Compound 9c, 3,6-Diamino-N-(2-chlorophenyl)-4-(3-chlorophenyl)-5-cyanothieno[2,3-b]pyridine-2-carboxamide] | 99 ± 14.1% | 69.2 ± 26% | 40 ± 15.9% | 99.3 ± 5.3% | – | – | – | – |
| CN(CCNC(=O)OC(C)(C)C)c1ccc(-c2c(C#N)c(N)nc3sc(C(=O)Nc4cccc(Cl)c4)c(N)c23)c(Cl)c1 [Compound 9w, tert-Butyl {2-[(3-chloro-4-{3,6-diamino-2-[(3-chlorophenyl)carbamoyl]-5-cyanothieno[2,3-b]pyridin-4-yl}phenyl)(methyl)amino]ethyl}carbamate] | 95.3 ± 8.6% | 50.1 ± 37.9% | 3.6 ± 2.4% | 76.1 ± 17.3% | >30 | 860 nM | – | – |
| N#Cc1c(N)nc2sc(C(=O)Nc3cccc(Cl)c3)c(N)c2c1-c1ccc(N2CCNCC2)cc1Cl [Compound 9q, 3,6-Diamino-4-[2-chloro-4-(piperazin-1-yl)phenyl]-N-(3-chlorophenyl)-5-cyanothieno[2,3-b]pyridine-2-carboxamide hydrochloride] | 72.6 ± 12.8% | 6.5 ± 3.1% | 4.9 ± 3% | -13.1 ± 5.4% | – | – | – | – |
| Cc1nc2sc(C(=O)Nc3ccc(Cl)cc3)c(N)c2c(-c2ccccc2)c1C(=O)O [Compound 17j, 3-Amino-2-[(4-chlorophenyl)carbamoyl]-6-methyl-4-phenylthieno[2,3-b]pyridine-5-carboxylic acid] | 108 ± 10.4% | 76.1 ± 23.1% | 97.1 ± 19.9% | 95.8 ± 9.8% | – | – | – | no |
| Cc1cccc(-c2c3c(nc4sc(C(=O)Nc5ccc(Cl)cc5)c(N)c24)CCC3)c1 [Compound 17f, 3-Amino-N-(4-chlorophenyl)-4-(3-methylphenyl)-6,7-dihydro-5H-cyclopenta[b]thieno[3,2-e]pyridine-2-carboxamide] | 103 ± 6.2% | 9.1 ± 16.1% | 1 ± 14.9% | 72.4 ± 23.4% | >100 | 19.2 nM | two-digit nanomolar range | – |
| Nc1c(C(=O)Nc2ccc(Cl)cc2)sc2nc3c(c(-c4ccccc4)c12)CCCC3 [Compound 17d, 3-Amino-N-(4-chlorophenyl)-4-phenyl-5,6,7,8-tetrahydrothieno[2,3-b]quinoline-2-carboxamide] | 106 ± 10.6% | 6.2 ± 5.7% | 8.4 ± 17.5% | – | – | – | – | – |
| Cc1cccc(-c2c(C#N)c(N)nc3sc(C(=O)NCCC4CC4)c(N)c23)c1 [Compound 9o, 3,6-Diamino-5-cyano-N-(2-cyclopropylethyl)-4-(3-methylphenyl)thieno[2,3-b]pyridine-2-carboxamide] | 60 ± 11.2% | 62.5 ± 23.5% | 40.8 ± 14.3% | – | – | – | – | – |

Source: PMC7397174, “4-Arylthieno[2,3-b]pyridine-2-carboxamides Are a New Class of Antiplasmodial Agents” (Molecules, 2020)
